These results are taken from patent US20090170893A1, “NOVEL HYDRATE FORM” (priority 2006, published 2009).

A short description of this data set: storage stability of the solid form (polymorphic conversion). It counts as physicochemical.

With `COc1c(N2C[C@@H]3CCCN[C@@H]3C2)c(F)cc2c(=O)c(C(=O)O)cn(C3CC3)c12.Cl` [Example 1, 1-cyclopropyl-7-([S,S]-2,8-diazabicyclo-[4.3.0]non-8-yl)-6-fluoro-1,4-dihydro-8-methoxy-4-oxo-3-quinolinecarboxylic acid], the “stability / polymorphic conversion on prolonged storage” value is “stable and exhibit no polymorphic conversion” (prolonged storage over 3 weeks at ambient conditions); “stable and exhibit no polymorphic conversion” (prolonged storage over 3 weeks at high humidity accelerated conditions).
